One experiment deals with cathepsin S (Mus musculus, UniProt O70370). Briefly: activity-based labelling in living RAW cells, SDS-PAGE in-gel fluorescence. The format is cell-based.
The next experiment has as its target cathepsin B (Mus musculus, UniProt P10605). The experiment is described as above. The format is cell-based.

Sequence of cathepsin B (P10605 80-126): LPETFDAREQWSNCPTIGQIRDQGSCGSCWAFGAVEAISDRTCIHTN
Sequence of cathepsin B (P10605 129-333): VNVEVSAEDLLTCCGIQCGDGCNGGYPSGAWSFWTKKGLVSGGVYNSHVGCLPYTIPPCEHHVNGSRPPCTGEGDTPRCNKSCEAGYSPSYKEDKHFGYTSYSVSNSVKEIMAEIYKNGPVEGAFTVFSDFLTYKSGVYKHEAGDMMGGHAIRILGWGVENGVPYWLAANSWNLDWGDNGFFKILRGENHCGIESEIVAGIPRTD

Broadly, the EC50 is the concentration that produces a half-maximal response. Low readings indicate higher potency in that assay, high ones lower potency in that assay. Regarding `CCN1C(=CC=CC=CC2=[N+](CCCCCC(=O)NCCCC[C@H](NC(=O)[C@H](Cc3ccccc3)NC(=O)OCc3ccccc3)C(=O)COC(=O)c3c(C)cccc3C)c3ccc(S(=O)(=O)O)cc3C2(C)C)C(C)(C)c2cc(S(=O)(=O)O)ccc21` [GB123], the EC50 on cathepsin S was 1.3 µM; at cathepsin B, 1.6 µM.

Source of the values: publication PMC3361968 (Chemistry & biology, 2012).
